Calls of active or inactive are those of the source. Rule as the data show it, for most assays here: actives have a measured AC50 and inactives only a lower limit.
Key:
[1] = inhibition of fibronectin matrix deposition – AH1F cells, Alexa488-fibronectin fluorescence, cherry-pick, set 2, dose response (AID 1117283); type: functional, cell-based
[2] = viability loss in HepG2 hepatoma cells – cell-based, cherry-picks, set 5, cytotoxicity control, dose response (AID 1053118); type: functional
[3] = molecular target: T1, Low molecular weight phosphotyrosine protein phosphatase (Homo sapiens, UniProt P24666); assay: inhibition of human LMPTP enzyme activity – biochemical, absorbance, pNPP substrate, LMPTP-A isoform, set 2, orthogonal assay, dose response (AID 743308); type: functional
T1 sequence (P24666 whole entry): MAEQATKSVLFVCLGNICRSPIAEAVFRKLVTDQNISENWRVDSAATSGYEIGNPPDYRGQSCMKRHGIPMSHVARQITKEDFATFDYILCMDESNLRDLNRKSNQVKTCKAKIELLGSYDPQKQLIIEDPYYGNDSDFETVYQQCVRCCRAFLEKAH

[4] = molecular target: T1, Low molecular weight phosphotyrosine protein phosphatase; assay: inhibition of LMPTP-A enzymatic activity – biochemical, OMFP substrate, fluorescence intensity, set 2, dose response (AID 743307); type: functional
[5] = molecular target: E3 ubiquitin-protein ligase Mdm2 (Homo sapiens, UniProt Q00987); assay: MDM2-luc reporter signal enhancers, multi-concentration potency testing, MDM2 ubiquitin-protein ligase inhibitor program, whole-cell format, luminescence detection, 384-well microplate (AID 1394); type: functional;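 also: MDM2 E3 inhibitors raise luminescence so EC50 is for signal enhancement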
E3 ubiquitin-protein ligase Mdm2, sequence (Q00987 whole entry): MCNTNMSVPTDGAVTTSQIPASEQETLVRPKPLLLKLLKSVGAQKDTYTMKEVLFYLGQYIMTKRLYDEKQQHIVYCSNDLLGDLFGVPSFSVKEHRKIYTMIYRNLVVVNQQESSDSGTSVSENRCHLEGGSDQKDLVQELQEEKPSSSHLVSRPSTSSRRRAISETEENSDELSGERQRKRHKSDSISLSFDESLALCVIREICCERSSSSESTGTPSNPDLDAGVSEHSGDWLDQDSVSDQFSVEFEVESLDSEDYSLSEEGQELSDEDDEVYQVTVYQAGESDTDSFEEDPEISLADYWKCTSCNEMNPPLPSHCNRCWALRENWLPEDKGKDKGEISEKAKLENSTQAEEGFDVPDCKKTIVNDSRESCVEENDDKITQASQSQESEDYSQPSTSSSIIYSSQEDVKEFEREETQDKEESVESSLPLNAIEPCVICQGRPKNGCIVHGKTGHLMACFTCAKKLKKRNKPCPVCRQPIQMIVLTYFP

[6] = molecular target: NAD-dependent protein deacylase sirtuin-5, mitochondrial (Homo sapiens, UniProt Q9NXA8); assay: blockers of sirtuin-5 peptide desuccinylation – biochemical, fluorescence imaging, cherry-pick, set 6, dose response (AID 720597)
NAD-dependent protein deacylase sirtuin-5, mitochondrial, sequence (Q9NXA8 whole entry): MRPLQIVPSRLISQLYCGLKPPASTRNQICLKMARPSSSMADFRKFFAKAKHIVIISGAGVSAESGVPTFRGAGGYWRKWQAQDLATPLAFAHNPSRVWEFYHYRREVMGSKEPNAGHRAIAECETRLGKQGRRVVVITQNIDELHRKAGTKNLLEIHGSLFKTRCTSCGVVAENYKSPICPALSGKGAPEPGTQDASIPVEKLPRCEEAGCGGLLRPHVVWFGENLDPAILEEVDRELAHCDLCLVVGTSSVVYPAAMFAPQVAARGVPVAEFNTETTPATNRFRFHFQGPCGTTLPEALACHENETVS

[7] = cytotoxicity in MITF-independent A375 cells – cell-based, CellTiter-Glo luminescence, dry powder, set 4, counter-screen for MITF inhibitor project, dose response (AID 624364); type: functional; conditions: A-375;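 also: A375 melanoma cells are MITF independent so this is a counter screen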
[8] = viability loss in MITF-independent A375 cells – cell-based, CellTiter-Glo luminescence, dry powder, set 2, counter-screen for MITF inhibitor project, dose response (AID 624489); type: functional; conditions: A-375;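 also: actives are compounds lowering A375 viability meaning general cytotoxicity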
[9] = molecular target: G-protein coupled receptor 183 (Homo sapiens, UniProt P32249); assay: SAR confirmation of small molecule antagonists of the EBI2 receptor via a luminescent beta-arrestin assa.; type: functional
G-protein coupled receptor 183, sequence (P32249 whole entry): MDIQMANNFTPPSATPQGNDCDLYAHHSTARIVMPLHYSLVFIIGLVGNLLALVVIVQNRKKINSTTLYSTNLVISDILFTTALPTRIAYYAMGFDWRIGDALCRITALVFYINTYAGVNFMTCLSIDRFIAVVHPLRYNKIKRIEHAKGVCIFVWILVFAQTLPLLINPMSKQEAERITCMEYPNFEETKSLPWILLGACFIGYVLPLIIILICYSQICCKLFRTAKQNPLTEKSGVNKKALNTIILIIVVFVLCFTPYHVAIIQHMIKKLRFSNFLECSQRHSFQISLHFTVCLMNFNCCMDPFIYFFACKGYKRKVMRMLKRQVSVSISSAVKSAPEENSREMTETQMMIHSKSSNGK

[10] = cells; conditions: HEK293
[11] = P. falciparum Dd2 growth inhibitors, dose response, SYBR Green, cherry-picked samples (AID 1159567); type: functional, cell-based
[12] = toxicity to human hepatoma HepG2 cells – cell-based, cherry-picked samples, cytotoxicity control, dose response (AID 1159577); type: functional
[13] = YAP1 overexpression rescue of CTGF inhibition – DLD1 cells, RT-qPCR, cherry-pick, mechanism study for YAP1 pathway inhibitor project, dose response (AID 1053127); type: functional, cell-based; conditions: DLD-1
[14] = CTGF mRNA reduction in DLD1 cells – cell-based, DLD1 colon cancer, RT-qPCR, cherry-pick, dose response (AID 1053122); type: functional; conditions: Cancer cell lines
[15] = molecular target: Kallikrein-7 (Homo sapiens, UniProt P49862); assay: Fluorescence Intensity-based biochemical primary high throughput dose response assay to identify activators of kallikrein-7 (K7) zymogen.
Kallikrein-7, sequence (P49862 whole entry): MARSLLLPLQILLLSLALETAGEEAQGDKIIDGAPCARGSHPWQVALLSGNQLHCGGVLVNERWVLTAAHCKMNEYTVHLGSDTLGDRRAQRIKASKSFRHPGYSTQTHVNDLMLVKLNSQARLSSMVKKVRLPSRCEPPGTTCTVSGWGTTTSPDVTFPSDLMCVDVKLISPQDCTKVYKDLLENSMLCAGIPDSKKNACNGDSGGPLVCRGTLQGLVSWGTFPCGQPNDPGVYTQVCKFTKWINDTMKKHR

Which AC50 [1] does the source give for `COc1ccc([N+](=O)[O-])cc1NS(=O)(=O)c1ccc(C(=O)N2CCCC2)cc1` here?
Its AC50 is 51 µM (active).

And the AC50 [2]?
The AC50 was > 52 µM (inactive).

For `CCCCNc1nc(-c2ccccc2)nc2ccccc12`, which IC50 [3] is on record?
The IC50 was > 80 µM (inactive).

And the IC50 [4]?
The IC50 was 23.2 µM (inactive).

With `COc1ccc(C(=O)NCCSC2CCCCC2)cc1` as the compound, how does the EC50 [5] read?
The EC50 was 13.6 µM (not active).

For `COCC(=O)N1C[C@H](C)[C@H](OC)CN(C)C(=O)c2cc(NC(=O)C3CCC3)ccc2OC[C@@H]1C`, which AC50 [6] is on record?
Its AC50 is 13.2 µM (active).

Which results are given for `CCN1CCN(C2=C(NS(=O)(=O)c3ccc(Br)s3)C(=O)c3ccccc3C2=O)CC1`?
AC50 [7]: > 70 µM (inactive); AC50 [8]: > 70 µM (inactive)

Which IC50 [9] does the source give for `COc1ccc(/C=C/C(=O)N2CCN(S(=O)(=O)c3ccc(Br)cc3)CC2)cc1` here?
The IC50 was 0.00958 µM (active).

Which AC50 [10] does the source give for `Fc1ccc2c(c1)[nH]c(=S)n2CCOc1ccccc1` here?
Its AC50 is > 52 µM (inactive).

Which AC50 [11] does the source give for `C[C@@H]1CN([C@H](C)CO)C(=O)c2ccccc2-c2ccccc2CO[C@@H]1CN(C)Cc1ccc(Oc2ccccc2)cc1` here?
Its AC50 is 6.67 µM (active).

What about the AC50 [12] of the same compound?
The AC50 was 19.8 µM (active).

What about the AC50 [13] of the same compound?
The AC50 was 7.84 µM (active).

What about the AC50 [14] of the same compound?
The AC50 was 6.79 µM (active).

For `COc1ccc(NC(=O)c2cc(-c3ccco3)on2)cc1OC`, which EC50 [15] is on record?
The EC50 was 13.1 µM (inactive).
